Measured values: patent US20260258029A1, “CHROMANE AMIDINE MONOBACTAM COMPOUNDS FOR THE TREATMENT OF BACTERIAL INFECTIONS” (priority 2022, published 2026)

What was measured:
Format in all cases: cell-based
[1] = tested on: Pseudomonas aeruginosa expressing AmpC (CL5701); test: Growth inhibitory concentration (OD600), P. aeruginosa CL5701, with relebactam; conditions: lowest concentration inhibiting 95% of bacterial growth, BLi relebactam 4 μg/mL, 35±2° C., 22 hours
Protocol: (§1) The concentrations of compounds required to inhibit the growth of various strains of bacteria were determined in an assay that assessed bacterial growth by measuring optical density at 600 nm (OD600). The bacterial strains tested included the clinical strains Escherichia coli expressing NDM-1 (CLB30016), Klebsiella pneumoniae expressing KPC-1 (CL6569), Acinetobacter baumannii expressing TEM-1, AmpC, and Oxa-24/40 (CL6188) and Pseudomonas aeruginosa expressing AmpC (CL5701). All compounds were tested in the presence of a R lactamase inhibitor (BLi, Relebactam) in 384-well microplates.
(§2) The clinical strains were stored as frozen single use stocks, thawed and diluted into 1.1× cation-adjusted Mueller-Hinton II broth to achieve approximately 2×10^5 CFU/mL. Test compounds were dissolved in DMSO and diluted 1:50 in the assay, resulting in a final concentration range of 100 μM to 0.098 μM. On the day of the assay, 1 μL of test compound was added to the plate followed by 4 μL of 50 μg/mL BLi in MOPS buffer and 45 μL of diluted bacteria. Plates were centrifuged at 1000 rpm for 30 seconds, shaken at approximately 800 rpm for 1 minute, and incubated at 35±2° C. for 22 hours. The concentration of BLi used in the assay was 4 μg/mL. At the end of the incubation, absorbance at 600 nm was determined using a spectrophotometer. Inhibition was quantitated by identifying the lowest concentration of test compound that was required to inhibit 95% of the growth of the bacteria. The results for Examples 1-39 are reported in Table I, expressed as the concentration of compound that inhibited 95% of bacterial growth (Minimum Inhibitory Threshold Concentration; MITC95).

[2] = tested on: Acinetobacter baumannii expressing TEM-1, AmpC, and Oxa-24/40 (CL6188); conditions: lowest concentration inhibiting 95% of bacterial growth; BLi relebactam 4 μg/mL; 35±2° C., 22 hours; OD600
Protocol: as §1, §2

[3] = tested on: Escherichia coli expressing NDM-1 (CLB30016); test: Growth inhibitory concentration (OD600), E. coli CLB30016, with relebactam; conditions: lowest concentration inhibiting 95% of bacterial growth, BLi relebactam 4 μg/mL, 35±2° C., 22 hours
Protocol: as §1, §2

| Compound | PA—CL5701 MITC95 [1] | AB—CL6188 MITC95 [2] | EC—CLB30016 MITC95 [3] |
| --- | --- | --- | --- |
| CC1(C)[C@H](NC(=O)/C(=N\O[C@](C)(C(=O)O)[C@H]2CCc3cc(C(=N)NC[C@H]4C[C@](N)(CO)C4)ccc3O2)c2csc(N)n2)C(=O)N1OS(=O)(=O)O [Compound 70, (S)-2-((R)-6-(N-(((1s,3S)-3-amino-3-(hydroxymethyl)cyclobutyl)methyl)-carbamimidoyl)-chroman-2-yl)-2-((((Z)-1-(2-aminothiazol-4-yl)-2-(((S)-2,2-dimethyl-4-oxo-1-(sulfooxy)-azetidin-3-yl)amino)-2-oxoethylidene)amino)oxy)propanoic acid] | 1.563 µM | 6.25 µM | 6.25 µM |
| CC1(C)[C@H](NC(=O)/C(=N\O[C@](C)(C(=O)O)[C@H]2CCc3cc(C(=N)NC[C@H]4C[C@@](N)(CO)C4)ccc3O2)c2csc(N)n2)C(=O)N1OS(=O)(=O)O [Compound 71, (S)-2-((R)-6-(N-(((1r,3R)-3-amino-3-(hydroxymethyl)cyclobutyl)methyl)-carbamimidoyl)-chroman-2-yl)-2-((((Z)-1-(2-aminothiazol-4-yl)-2-(((S)-2,2-dimethyl-4-oxo-1-(sulfooxy)-azetidin-3-yl)amino)-2-oxoethylidene)amino)oxy)propanoic acid] | 1.563 µM | 3.125 µM | 6.25 µM |
| tert-butyl (S)-2-((((Z)-1-(2-((tert-butoxycarbonyl)amino)thiazol-4-yl)-2-(((S)-2,2-dimethyl-4-oxo-1-(sulfooxy)azetidin-3-yl)amino)-2-oxoethylidene)amino)oxy)-2-((R)-6-(N—(((S)-morpholin-2-yl)methyl)carbamimidoyl)chroman-2-yl)propanoate [Compound 32] | 3.125 µM | 12.5 µM | 6.25 µM |
